Holding throughout (assay type): functional
For one experiment, the system named is HT-29. The experiment is described as follows: Growth inhibition of human HT29 cells.
The test system of experiment [1] is M21. The experiment is described as follows: Growth inhibition of human M21 cells.
Another experiment has as its system MCF7. As to the kind of experiment: Growth inhibition of human MCF7 cells.
For the next experiment, the system named is MDA-MB-231. The experiment is described as follows: Growth inhibition of human MDA-MB-231 cells.
Experiment [2] deals with M21. As to the kind of experiment: Induction of apoptosis in human M21 cells at 24 uM after 24 hrs.
The test system of experiment [3] is M21. As to the kind of experiment: Cell cycle arrest in human M21 cells assessed as accumulation at G1 phase at 24 uM after 24 hrs.
Experiment [4] has as its system M21. The experiment is described as follows: Induction of apoptosis in human M21 cells at 80 uM after 24 hrs.
Experiment [5] has as its system M21. As to the kind of experiment: Cell cycle arrest in human M21 cells assessed as accumulation at S phase at 24 uM after 24 hrs.
In experiment [6] the test system is M21. As to the kind of experiment: Cell cycle arrest in human M21 cells assessed as accumulation at G2/M phase at 24 uM after 24 hrs.
Experiment [7] deals with M21. The experiment is described as follows: Cell cycle arrest in human M21 cells assessed as accumulation at G1 phase at 80 uM after 24 hrs.
Experiment [8] concerns M21. As to the kind of experiment: Cell cycle arrest in human M21 cells assessed as accumulation at S phase at 80 uM after 24 hrs.
Experiment [9] concerns M21. The experiment is described as follows: Cell cycle arrest in human M21 cells assessed as accumulation at G2/M phase at 80 uM after 24 hrs.
Experiment [10] has as its system M21. The experiment is described as follows: Induction of apoptosis in human M21 cells at 200 uM after 24 hrs.
Experiment [11] has as its system M21. The experiment is described as follows: Cell cycle arrest in human M21 cells assessed as accumulation at G1 phase at 200 uM after 24 hrs.
For experiment [12], the system named is M21. The experiment is described as follows: Cell cycle arrest in human M21 cells assessed as accumulation at S phase at 200 uM after 24 hrs.
Experiment [13] deals with M21. The experiment is described as follows: Cell cycle arrest in human M21 cells assessed as accumulation at G2/M phase at 200 uM after 24 hrs.
For experiment [14], the system named is M21. As to the kind of experiment: Cell cycle arrest in human M21 cells assessed as accumulation at G1 phase at 53 uM after 24 hrs.
Experiment [15] has as its system M21. The experiment is described as follows: Cell cycle arrest in human M21 cells assessed as accumulation at S phase at 53 uM after 24 hrs.
Experiment [16] has as its system M21. As to the kind of experiment: Cell cycle arrest in human M21 cells assessed as accumulation at G2/M phase at 53 uM after 24 hrs.
Experiment [17] concerns M21. The experiment is described as follows: Induction of apoptosis in human M21 cells at 6 uM after 24 hrs.
The test system of experiment [18] is M21. The experiment is described as follows: Cell cycle arrest in human M21 cells assessed as accumulation at G1 phase at 6 uM after 24 hrs.
In experiment [19] the test system is M21. As to the kind of experiment: Cell cycle arrest in human M21 cells assessed as accumulation at S phase at 6 uM after 24 hrs.
The test system of experiment [20] is M21. As to the kind of experiment: Cell cycle arrest in human M21 cells assessed as accumulation at G2/M phase at 6 uM after 24 hrs.
The subject of experiment [21] is M21. As to the kind of experiment: Induction of apoptosis in human M21 cells at 21 uM after 24 hrs.
Experiment [22] relates to M21. As to the kind of experiment: Cell cycle arrest in human M21 cells assessed as accumulation at G1 phase at 21 uM after 24 hrs.
Experiment [23] deals with M21. As to the kind of experiment: Cell cycle arrest in human M21 cells assessed as accumulation at S phase at 21 uM after 24 hrs.
Experiment [24] deals with M21. The experiment is described as follows: Cell cycle arrest in human M21 cells assessed as accumulation at G2/M phase at 21 uM after 24 hrs.
Experiment [25] deals with M21. As to the kind of experiment: Induction of apoptosis in human M21 cells at 53 uM after 24 hrs.
The test system of experiment [26] is M21. The experiment is described as follows: Induction of apoptosis in human M21 cells at 0.015 uM after 24 hrs.
The test system of experiment [27] is M21. As to the kind of experiment: Cell cycle arrest in human M21 cells assessed as accumulation at G1 phase at 0.015 uM after 24 hrs.
Experiment [28] deals with M21. The experiment is described as follows: Cell cycle arrest in human M21 cells assessed as accumulation at S phase at 0.015 uM after 24 hrs.
Experiment [29] deals with M21. The experiment is described as follows: Cell cycle arrest in human M21 cells assessed as accumulation at G2/M phase at 0.015 uM after 24 hrs.
Experiment [30] relates to M21. As to the kind of experiment: Induction of apoptosis in human M21 cells at 0.050 uM after 24 hrs.
For experiment [31], the system named is M21. As to the kind of experiment: Cell cycle arrest in human M21 cells assessed as accumulation at G1 phase at 0.050 uM after 24 hrs.
Experiment [32] deals with M21. As to the kind of experiment: Cell cycle arrest in human M21 cells assessed as accumulation at S phase at 0.050 uM after 24 hrs.
Experiment [33] concerns M21. As to the kind of experiment: Cell cycle arrest in human M21 cells assessed as accumulation at G2/M phase at 0.050 uM after 24 hrs.
Experiment [34] deals with M21. The experiment is described as follows: Induction of apoptosis in human M21 cells at 0.125 uM after 24 hrs.
In experiment [35] the test system is M21. As to the kind of experiment: Cell cycle arrest in human M21 cells assessed as accumulation at G1 phase at 0.125 uM after 24 hrs.
Experiment [36] deals with M21. As to the kind of experiment: Cell cycle arrest in human M21 cells assessed as accumulation at S phase at 0.125 uM after 24 hrs.
The test system of experiment [37] is M21. The experiment is described as follows: Cell cycle arrest in human M21 cells assessed as accumulation at G2/M phase at 0.125 uM after 24 hrs.

Structures are written as SMILES.

In the case of `COc1ccc(/C=C/c2cccc(NC(=O)NCCCl)c2)cc1O`, the GI50 (usually the concentration that inhibits growth by half) in the experiment on HT-29 was 68.2 µM; in the experiment on M21 [1] it was 22.7 µM; in the experiment on MCF7, 28.2 µM; in the experiment on MDA-MB-231 it was 16.5 µM. Further, the Activity in the experiment on M21 [2] was 8.3%; in the experiment with M21 [3] it was 37.2%; in the experiment with M21 [4], 5.3%; with M21 [5] it was 16.6%; with M21 [6], 22.5%; in the experiment on M21 [7], 38.1%. Further, the Activity was 18.7% with M21 [8]; 21.3% in the experiment on M21 [9]; 4.5% in the experiment on M21 [10]; 40.3% in the experiment on M21 [11]; 19% in the experiment on M21 [12]; 19.6% in the experiment with M21 [13].

With `COc1ccc(CCc2cccc(NC(=O)NCCCl)c2)cc1O`, the GI50 with HT-29 turned out to be 9.6 µM; with M21 [1] it was 4.7 µM; in the experiment with MCF7, 11.6 µM; with MDA-MB-231, 4.1 µM. Moreover, the Activity was 12.5% in the experiment with M21 [2]; 23.8% in the experiment with M21 [3]; 18.7% in the experiment on M21 [4]; 20.7% in the experiment with M21 [5]; 27.5% in the experiment on M21 [6]; 15.2% in the experiment with M21 [7]. In addition, the Activity in the experiment with M21 [8] amounted to 16.4%; in the experiment on M21 [9], 34.9%; in the experiment on M21 [10], 6.9%; in the experiment with M21 [11] it was 13.5%; in the experiment on M21 [12], 15.7%; in the experiment on M21 [13], 42.6%.

As to `COc1ccc(/C=C\c2cccc(NC(=O)NCCCl)c2)cc1O`, the GI50 in the experiment on HT-29 worked out at 9.2 µM; in the experiment with M21 [1], 4 µM; in the experiment on MCF7, 4.5 µM; in the experiment with MDA-MB-231 it was 4.9 µM. Also, the Activity in the experiment with M21 [2] came to 44.8%; with M21 [3] it was 22.1%; in the experiment on M21 [4], 15%; in the experiment on M21 [5] it was 12.3%; in the experiment with M21 [6] it was 12.5%; with M21 [7], 18.4%. Besides, the Activity amounted to 16.4% with M21 [8]; 35.5% in the experiment on M21 [9]; 21.7% in the experiment on M21 [10]; 14.7% in the experiment with M21 [11]; 10.5% in the experiment on M21 [12]; 41.3% with M21 [13].

Consider `COc1ccc(CCc2ccc(NC(=O)NCCCl)cc2)cc1O`, for which the GI50 in the experiment on HT-29 was 15.3 µM; in the experiment on M21 [1] it was 16.3 µM; with MCF7 it was 15.9 µM; with MDA-MB-231, 11 µM. The Activity in the experiment with M21 [2] came out at 2.8%; in the experiment with M21 [3] it was 37.8%; in the experiment on M21 [4] it was 2.3%; in the experiment with M21 [5] it was 9.9%; in the experiment with M21 [6], 30.2%; with M21 [7], 15.5%. Further, the Activity turned out to be 13.4% in the experiment with M21 [8]; 45.1% in the experiment with M21 [9]; 2.6% with M21 [10]; 7.2% in the experiment with M21 [11]; 16.3% in the experiment on M21 [12]; 47.9% in the experiment with M21 [13].

In the case of `COc1ccc(/C=C\c2ccc(NC(=O)NCCCl)cc2)cc1O`, the Activity is 8.1% in the experiment on M21 [14]; 12.5% in the experiment with M21 [15]; 48% in the experiment on M21 [16]; 10.7% with M21 [17]; 11.4% in the experiment with M21 [18]; 15.8% in the experiment with M21 [19]. The Activity in the experiment on M21 [20] came out at 43.3%; in the experiment with M21 [21] it was 17.6%; in the experiment with M21 [22], 6.8%; in the experiment with M21 [23] it was 9.7%; with M21 [24], 47.2%; in the experiment on M21 [25], 9.7%. Also, the GI50 came to 2.4 µM in the experiment on HT-29, 0.97 µM in the experiment on M21 [1], 1.65 µM with MCF7 and 0.86 µM in the experiment with MDA-MB-231.

Consider `COc1ccc(/C=C/c2ccc(NC(=O)NCCCl)cc2)cc1O`, for which the GI50 in the experiment with HT-29 stood at 1.18 µM; in the experiment with M21 [1], 8.38 µM; with MCF7, 14 µM; with MDA-MB-231, 17.4 µM. Also, the Activity in the experiment with M21 [2] is 9.9%; in the experiment on M21 [3] it was 38.1%; in the experiment with M21 [4], 5.5%; in the experiment with M21 [5], 12.9%; with M21 [6] it was 19.5%; in the experiment on M21 [7], 38.8%. Further, the Activity in the experiment on M21 [8] is 15.6%; in the experiment with M21 [9] it was 21%; with M21 [10], 11.9%; in the experiment on M21 [11] it was 37.4%; in the experiment on M21 [12] it was 21.9%; in the experiment on M21 [13], 12.4%.

Turning to `O=C(NCCCl)Nc1cccc(CCCCCO)c1`, the 50% growth inhibitory concentration (GI50) was 0.16 µM with HT-29, 0.27 µM in the experiment with M21 [1], 0.48 µM in the experiment on MCF7 and 0.23 µM in the experiment with MDA-MB-231.

As to `COc1ccc(/C=C\c2cc(OC)c(OC)c(OC)c2)cc1O` [COMBRETASTATIN A4], the Activity in the experiment with M21 [26] is 10.7%; in the experiment on M21 [27], 9.4%; with M21 [28] it was 15%; in the experiment with M21 [29], 46.4%; in the experiment with M21 [30], 15.8%; in the experiment on M21 [31], 10.1%. Also, the Activity in the experiment with M21 [32] worked out at 14.6%; with M21 [33] it was 40.6%; in the experiment on M21 [34], 11.6%; in the experiment with M21 [35] it was 8.2%; in the experiment with M21 [36], 14.7%; in the experiment with M21 [37], 45.4%. For the same compound, the GI50 in the experiment on HT-29 was 0.089 µM; in the experiment on M21 [1], 0.002 µM; with MCF7 it was 0.003 µM; in the experiment with MDA-MB-231, 0.002 µM.
